PMC10348910, “Epigenetic reprogramming of cell cycle genes by ACK1 promotes breast cancer resistance to CDK4/6 inhibitor” (Oncogene, 2023)

System: CCNB1, CCNB2 and CDC20 protein
Experiment: immunoblotting of CCNB1, CCNB2 and CDC20
Type: cell-based
Details: breast cancer cell lysates
Description: Fig. 3 ACK1 inhibitor suppresses expression of cell cycle genes. A Cell lysates from vehicle or (R)-9b treated cells were immunoblotted using CCNB1, CCNB2 and CDC20 antibodies. B HCC-1395 and MDA-MB-231 cells were transfected with ACK1 and scrambled siRNAs, followed by qPCR using ACK1 primers, with 18S rRNA as internal control. C siRNA transfected cells were subjected to western blotting using ACK1 antibody, with Actin as loading control. RNA from silenced cells, (D) HCC-1395 and (E) MDA-MB-231 was subjected to qPCR using CCNB1, CCNB2 and CDC20 primers. 18S rRNA was used as housekeeping control. For (A) and (C), representative images of three independent experiments are shown. For (B, D, E), data are represented as the mean ± SEM. *p < 0.05, **p < 0.01, ***p < 0.001, unpaired two-tailed Student’s t test.
Vehicle or (R)-9b (5 µM, overnight in serum free media) treated cells were lysed by sonication in receptor lysis buffer (RLB) and lysates were fractionated by SDS-PAGE, and transferred onto a PVDF membrane (Immobilon). […]

CN1CCN(c2ccc(Nc3ncc(Cl)c(NC[C@H]4CCCO4)n3)cc2)CC1 [(R)-9b]
CCNB1, CCNB2 and CDC20 protein abundance: decrease in respective protein abundance
